Test results reported in patent publication US20090076140A1, “PHARMACEUTICAL COMPOSITIONS CONTAINING SULPHONIC ACID DERIVATIVES” (ITALFARMACO, S. A., priority 2003, published 2009).
Entries after “also recorded” stand apart in the source; their conditions may differ. Where two headings read alike, the source gives them in different places.

What was measured:
[1] = system: quiescent fibroblasts (Balb/c 3T3); assay: toxicity analysis for quiescent fibroblasts (culture in the absence of aFGF); assay type: cell-based; details: for toxicity for quiescent fibroblasts: within the concentration range tested / in which aFGF mitogenic activity is inhibited
aFGF [2] = target: T1, aFGF (Homo sapiens, UniProt P05230); assay: angiogenesis inhibition test in mice (aFGF-soaked gelatin sponge implants); assay type: in vivo
Method: A standard angiogenesis test was performed with mice in order to evaluate the C-9 compound as an angiogenesis inhibitor.
(§1) Pathogen-free C57/BI/6 mice (Charles River, Spain) weighing 25±4 g were used. The animals were kept in plastic cages under controlled temperature and humidity conditions; they had water and food ad libitum and a schedule of 12 hours of daylight and darkness was maintained. The guidelines on animal welfare of the NIH and the European Union were followed meticulously.
(§2) 10 mm long sterile gelatin sponge cubes (Curaspon Dental, Clinimed Holding, Zwanenburg, Holland) were subcutaneously implanted in the backs of the mice after inducing intraperitoneal anesthesia [Cuevas, P. et al. (1999) Neurol. Res. 21, 191-194]. The animals were distributed into 2 groups: Group A (n=10): formed by animals in which sponges loaded with 200 μL of phosphate buffered saline (PBS) containing 29 μg/mL of heparin were implanted; and Group B (n=40): formed by animals in which sponges soaked with the same solution as that of Group A but containing 10 μg/mL of aFGF were implanted. The skin was sutured after implanting the sponge in the subcutaneous bursa. The mice in Group B were randomly divided into four groups (n=10) that received 0.008, 0.08, 0.8 and 8 mg/kg of compound C-9, respectively, by means of intraperitoneal injection of 200 μL of PBS 24 hours after surgical treatment [Pesenti, E. et al. (1992) Brit. J. Cancer 66, 367-372; Cuevas, P. et al. (1999) Neurol. Res. 21, 191-194]. All the procedures were performed under sterile conditions.
In order to evaluate angiogenesis, the mice were again anesthetized as previously described, and the sponges were surgically extracted, which were treated to perform histological studies by means of conventional methods [Cuevas, P. et al. (1999) Neurol. Res. 21, 191-194] 7 days after the implants. Neovascularization was quantified by means of a morphometric computer program connected to a microscope. The growth of new vessels inside the sponges was evaluated by means of the measurement of the surface area containing erythrocytes. Neovascularization was analyzed in 4 predetermined visual fields of 3 different sections at a magnification of 10. The statistical analyses were performed using Student's t-Test.
Target sequence in this assay (P05230 whole entry, species assumed): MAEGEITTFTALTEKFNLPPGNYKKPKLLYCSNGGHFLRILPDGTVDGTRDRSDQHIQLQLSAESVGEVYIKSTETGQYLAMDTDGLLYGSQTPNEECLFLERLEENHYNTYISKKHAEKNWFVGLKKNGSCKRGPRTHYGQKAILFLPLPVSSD

bFGF = bFGF (Homo sapiens, UniProt P09038); assay: angiogenesis inhibition test in mice with aFGF substituted with bFGF; assay type: in vivo; details: data not shown
[3] = toxicity observations in the mouse angiogenesis test; assay type: in vivo; details: highest tested concentrations
Method: as §1
as §2, with “All the procedures were performed under sterile conditions.” left out

glioma C6 cells = assay: angiogenesis and tumor growth inhibition, glioma C6 cells implanted in rabbit cornea; assay type: in vivo, Albino New Zealand rabbits
Method: Albino New Zealand rabbits (3±0.5 kg, male and female in equal numbers) were used and were implanted with 5 μL of a glioma C6 cell suspension [ATCC CCL-107] subepithelially injected into the cornea with a 10 μL Hamilton syringe using a surgical microscope. The injection is located at 2 mm from the limbal margin of the cornea. At the same time, an osmotic minipump was subcutaneously implanted in the neck region for the purpose of assuring continuous infusion of the compound to be tested (C-9) or of a saline solution (control). A catheter guided the solution to the sclera at a constant rate of 0.2 mg/h. It is thus calculated that a concentration of about 0.003 mg/mL of the compound to be tested or saline solution is maintained in the cornea. Treatment was maintained for 14 days. The corneas were eliminated at the end of each experiment and at fixed intervals after each treatment and processed for histological examination.

C6 glioma cells = assay: angiogenesis and tumor growth inhibition, C6 glioma cells implanted in rat brain; assay type: in vivo, rats
Method: A test similar to the one described in Example 3.1 was performed with rats, implanting the C6 glioma cells in the caudal area of the brain and the osmotic micropump in the back of the rats. A catheter led the treatment solution that contained the C-9 compound or the saline solution to the area of the glioma implant. Coronal sections of the brain of the rats thus treated were obtained and compared with coronal sections of the brain of untreated rats. The analysis was done by means of NMR spectroscopy imaging.

aFGF [4] = target: T1, aFGF; assay: aFGF-induced mitogenesis inhibition test on fibroblasts in culture; assay type: cell-based; set-up: the aFGF of 139 amino acid residues; details: for aFGF-induced mitogenic activity inhibition (in words): 60 hours, MIHS 20 μg/mL, aFGF 0.32 ng/mL; for aFGF-induced mitogenic inhibitory activity compared between compounds (stereochemical guidelines): C-9 and C-17 vs. C-14 and C-18, C-10, C-11, C-13 vs. C-9, 2-NMS vs 1-NMS series
Target sequence in this assay (P05230 16-155 limits assumed): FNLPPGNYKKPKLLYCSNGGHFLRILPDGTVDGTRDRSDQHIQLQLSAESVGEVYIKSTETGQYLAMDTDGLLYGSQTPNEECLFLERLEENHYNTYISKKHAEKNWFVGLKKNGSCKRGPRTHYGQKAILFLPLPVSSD

[5] = system: quiescent fibroblasts (Balb/c 3T3); details: Lozano et al. (1998), cited from earlier work
aFGF [6] = target: T1, aFGF; set-up: the aFGF of 139 amino acid residues; details: Lozano et al. (1998), cited from earlier work
Target sequence in this assay (P05230 16-155 limits assumed): as above

aFGF [7] = target: T1, aFGF; details: literature (Pesenti et al.; Cuevas et al.); cited from earlier work
Target sequence in this assay (P05230 whole entry, species assumed): as the sequence (P05230 whole entry, species assumed) above

aFGF [8] = target: T1, aFGF; details: in vitro and in vivo; cited from earlier work
Target sequence in this assay (P05230 whole entry, species assumed): as above

Sequence of bFGF (P09038 143-288, species assumed): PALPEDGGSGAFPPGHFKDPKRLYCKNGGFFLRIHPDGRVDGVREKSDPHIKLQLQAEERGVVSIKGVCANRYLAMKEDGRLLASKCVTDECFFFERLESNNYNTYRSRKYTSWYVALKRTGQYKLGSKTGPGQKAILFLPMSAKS

SMILES: Nc1cccc2cc(S(=O)(=O)[O-])ccc12.[Na+] [Compound C-9, sodium 5-amino-2-naphthalenesulfonate]
- mitogenesis inductor / tumorigenic effect on quiescent fibroblasts in the absence of aFGF [1]: does not occur
- toxicity for quiescent fibroblasts [1]: innocuous
- toxicity for quiescent fibroblasts ([1]; listed as sodium 5-amino-2-naphthalenesulfonate): not toxic
- neovascularization inhibition (aFGF [2]; 0.008 mg/kg intraperitoneal, 7 days after implants): already assessable
- neovascularization inhibition (aFGF [2]; 0.08 mg/kg intraperitoneal, 7 days after implants): already assessable
- cellular infiltration in aFGF-soaked sponge implants (aFGF [2]; 8 mg/kg intraperitoneal, FIG. 2): disappears
- neovascularization inhibition (aFGF [2]; doses exceeding 0.8 mg/kg intraperitoneal): virtually complete
- aFGF-induced angiogenic activity inhibition (in words) (aFGF [2]; mouse, in vivo): aFGF-induced angiogenic activity inhibitors
- neovascularization inhibition compared with suramines and 1,3,6-NTS (aFGF [2]; mouse, in vivo): considerably more effective neovascularization inhibitor
- neovascularization inhibition with bFGF instead of aFGF (bFGF): Equivalent results
- toxic death or apparent alterations in the animals [3]: did not cause any toxic death or apparent alterations
- weight changes [3]: nor did it cause weight changes
- apoptosis index (glioma C6 cells; continuous infusion 0.2 mg/h, 14 days): very positive
- corneal neovascularization area (glioma C6 cells; in comparison with the untreated animals): very reduced
- apoptotic endothelial nuclei (microscopic observation) (glioma C6 cells; treated animals): presence of apoptotic endothelial nuclei
- broken blood vessels (microscopic observation) (glioma C6 cells; treated animals): presence of broken blood vessels
- number of apoptotic bodies (microscopic observation) (glioma C6 cells; treated animals): higher number
- number of glioma C6 cells (microscopic observation) (glioma C6 cells; treated animals): lower number
- tumor mass (C6 glioma cells; NMR imaging of coronal brain sections vs untreated rats): significantly decreased
- intratumor vascularization inhibition (factor) (C6 glioma cells; rat, in vivo): six
- aFGF-induced mitogenic activity inhibition (in words) (aFGF [4]; Balb/c 3T3 fibroblasts): potent aFGF-induced mitogenic activity inhibitors
- aFGF-induced mitogenic inhibitory activity compared between compounds (stereochemical guidelines) (aFGF [4]): better aFGF-induced mitogenic activity inhibitors
- IC50 rank among the tested compounds (aFGF [4]; aFGF-induced mitogenesis): second best IC50 value
- IC50 (aFGF [4]; aFGF-induced mitogenesis, Balb/c 3T3 fibroblasts, read-out: inhibitory activity IC50): 265 µM

SMILES: O=S(=O)(O)c1cccc2ccccc12 [Compound C-1, 1-naphthalenesulfonic acid]
- toxicity for quiescent fibroblasts [1]: certain toxic effect
- toxicity at concentrations at which aFGF mitogenic activity is inhibited (literature) ([5]; listed as 1-NMS): clear toxicity; also recorded: toxic
- aFGF-induced mitogenic activity inhibition (in words) (aFGF [4]; Balb/c 3T3 fibroblasts): aFGF-induced mitogenic activity inhibitors
- aFGF-induced mitogenic activity inhibition (literature) (aFGF [6]; listed as 1-NMS): better aFGF mitogenic activity inhibitors than NTS; also recorded: aFGF-induced mitogenic activity inhibitors; also recorded: more potent inhibitor than 1,3,6-NTS and 1,5-NDS

SMILES: O=C(Nc1ccc(S(=O)(=O)[O-])c2ccccc12)c1ccccc1.[Na+] [Compound C-5, sodium 4-benzoylamino-1-naphthalenesulfonate]
- toxicity for quiescent fibroblasts [1]: not toxic
- aFGF-induced mitogenic activity inhibition (in words) (aFGF [4]; Balb/c 3T3 fibroblasts): low aFGF-induced mitogenesis inhibitory activity

SMILES: O=C(CCCCC(=O)Nc1cccc2cc(S(=O)(=O)O)ccc12)Nc1cccc2cc(S(=O)(=O)[O-])ccc12.[Na+] [Compound C-13]
- mitogenesis inductor / tumorigenic effect on quiescent fibroblasts in the absence of aFGF [1]: high mitogenesis inductor activity
- aFGF-induced mitogenic activity inhibition (in words) (aFGF [4]; Balb/c 3T3 fibroblasts): effective aFGF-induced mitogenesis activity inhibitors
- aFGF-induced mitogenic inhibitory activity compared between compounds (stereochemical guidelines) (aFGF [4]): significant reduction

SMILES: O=C(O)c1ccccc1C(=O)Nc1cccc2cc(S(=O)(=O)O)ccc12.[Na] [Compound C-12, sodium 2-{[(6-sulfo-1-naphthyl)amino]carbonyl}benzoic acid]
- mitogenesis inductor / tumorigenic effect on quiescent fibroblasts in the absence of aFGF [1]: high mitogenesis inductor activity
- aFGF-induced mitogenic activity inhibition (in words) (aFGF [4]; Balb/c 3T3 fibroblasts): effective aFGF-induced mitogenesis activity inhibitors

SMILES: O=C(Nc1cccc2ccc(S(=O)(=O)[O-])cc12)c1ccccc1.[Na+] [Compound C-16, sodium 8-benzoylamino-2-naphthalenesulfonate]
- toxicity for quiescent fibroblasts [1]: innocuous
- aFGF-induced mitogenic activity inhibition (in words) (aFGF [4]; Balb/c 3T3 fibroblasts): aFGF-induced mitogenic activity inhibitors

SMILES: Nc1c(O)cc(S(=O)(=O)[O-])c2ccccc12.[Na+] [Compound C-7, sodium 4-amino-3-hydroxy-1-naphthalenesulfonate]
- proliferation of quiescent fibroblasts cultured in the absence of aFGF ([1]; at concentrations exceeding 0.2 mM): significantly increases
- toxicity for quiescent fibroblasts [1]: certain toxic effect
- aFGF-induced mitogenic activity inhibition (in words) (aFGF [4]; Balb/c 3T3 fibroblasts): aFGF-induced mitogenic activity inhibitors; also recorded: best aFGF-induced mitogenic activity inhibitory activity
- IC50 rank among the tested compounds (aFGF [4]; aFGF-induced mitogenesis): lowest IC50

SMILES: O=S(=O)(O)c1cccc2c(S(=O)(=O)O)cccc12 [1,5-NDS, 1,5-naphthalenedisulfonic acid, reference compound]
- toxicity at concentrations at which aFGF mitogenic activity is inhibited (literature) [5]: clear toxicity; also recorded: toxic
- aFGF-induced mitogenic activity inhibition (literature) (aFGF [6]): better aFGF mitogenic activity inhibitors than NTS; also recorded: aFGF-induced mitogenic activity inhibitors

SMILES: O=S(=O)([O-])c1cccc2cccnc12.[Na+] [Compound C-24, sodium 8-quinolinesulfonate]
- toxicity for quiescent fibroblasts [1]: innocuous
- aFGF-induced mitogenic activity inhibition (in words) (aFGF [4]; Balb/c 3T3 fibroblasts): little aFGF-induced mitogenesis inhibitory activity

SMILES: O=S(=O)(O)c1ccc2c(S(=O)(=O)O)cc(S(=O)(=O)O)cc2c1 [1,3,6-NTS, 1,3,6-naphthalenetrisulfonic acid]
- concentration required to reach substantial neovascularization inhibition (aFGF [7]): about 200 mg/kg
- aFGF-induced angiogenesis and glioma proliferation inhibition (literature) (aFGF [8]): positive results
- aFGF-induced mitogenic activity inhibition (literature) (aFGF [6]): aFGF-induced mitogenic activity inhibitors

SMILES: CC(=O)Nc1cccc2cc(S(=O)(=O)[O-])ccc12.[Na+] [Compound C-10, sodium 5-acetylamino-2-naphthalenesulfonate]
- toxicity for quiescent fibroblasts [1]: innocuous
- toxicity for quiescent fibroblasts ([1]; listed as sodium 5-acetylamino-2-naphthalenesulfonate): not toxic
- aFGF-induced mitogenic activity inhibition (in words) (aFGF [4]; Balb/c 3T3 fibroblasts): slightly less than that of C-9
- aFGF-induced mitogenic activity inhibition (in words) (aFGF [4]; Balb/c 3T3 fibroblasts, listed as sodium 5-acetylamino-2-naphthalenesulfonate): potent aFGF-induced mitogenic activity inhibitors
- aFGF-induced mitogenic inhibitory activity compared between compounds (stereochemical guidelines) (aFGF [4]): does not substantially alter the inhibitory activity

SMILES: CC(=O)Nc1ccc(S(=O)(=O)[O-])c2ccccc12.[Na+] [Compound C-4, sodium 4-acetylamino-1-naphthalenesulfonate]
- toxicity for quiescent fibroblasts [1]: certain toxic effect
- aFGF-induced mitogenic activity inhibition (in words) (aFGF [4]; Balb/c 3T3 fibroblasts): aFGF-induced mitogenic activity inhibitors
